System: 485368-065-R3-J5-PDC spheroids with HUVEC/MSC, viability
Experiment: Anticancer human tumor 485368-065-R3-J5-PDC patient-derived pancreatic carcinoma cell line growth inhibition [RAS]
Conditions: for IC50: curve of first compound; for viability, T/C: stronger effect = lower value; active = viability on the fitted dose curve at most 10% of control; inactive = the rest
Method in brief: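 Multi-cell-type spheroids: tumor cells plus HUVEC endothelial cells and mesenchymal stem cells. RAS-pathway inhibitors were combined with targeted agents, each dosed in half-log steps down from clinical Cmax, or from 10 microM when Cmax was unknown.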

[1] = second compound 0.000949 µM, first compound 0.00316 µM
[2] = second compound 0.000949 µM, first compound 0.01 µM
[3] = second compound 0.000949 µM, first compound 0.0316 µM
[4] = second compound 0.000949 µM, first compound 0.1 µM
[5] = second compound 0.000949 µM, first compound 0.316 µM
[6] = second compound 0.000949 µM, first compound 1 µM
[7] = second compound 0.003 µM, first compound 0.00316 µM
[8] = second compound 0.003 µM, first compound 0.01 µM
[9] = second compound 0.003 µM, first compound 0.0316 µM
[10] = second compound 0.003 µM, first compound 0.1 µM
[11] = second compound 0.003 µM, first compound 0.316 µM
[12] = second compound 0.003 µM, first compound 1 µM
[13] = second compound 0.00949 µM, first compound 0.00316 µM
[14] = second compound 0.00949 µM, first compound 0.01 µM
[15] = second compound 0.00949 µM, first compound 0.0316 µM
[16] = second compound 0.00949 µM, first compound 0.1 µM
[17] = second compound 0.00949 µM, first compound 0.316 µM
[18] = second compound 0.00949 µM, first compound 1 µM
[19] = second compound 0.03 µM, first compound 0.00316 µM
[20] = second compound 0.03 µM, first compound 0.01 µM
[21] = second compound 0.03 µM, first compound 0.0316 µM
[22] = second compound 0.03 µM, first compound 0.1 µM
[23] = second compound 0.03 µM, first compound 0.316 µM
[24] = second compound 0.03 µM, first compound 1 µM
[25] = second compound 0.0949 µM, first compound 0.00316 µM
[26] = second compound 0.0949 µM, first compound 0.01 µM
[27] = second compound 0.0949 µM, first compound 0.0316 µM
[28] = second compound 0.0949 µM, first compound 0.1 µM
[29] = second compound 0.0949 µM, first compound 0.316 µM
[30] = second compound 0.0949 µM, first compound 1 µM
[31] = second compound 0.3 µM, first compound 0.00316 µM
[32] = second compound 0.3 µM, first compound 0.01 µM
[33] = second compound 0.3 µM, first compound 0.0316 µM
[34] = second compound 0.3 µM, first compound 0.1 µM
[35] = second compound 0.3 µM, first compound 0.316 µM
[36] = second compound 0.3 µM, first compound 1 µM
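Note: spheroids exposed to agents for seven days before readout.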

Nc1ccn(C2OC(CO)C(O)C2(F)F)c(=O)n1 (stereo unspecified) + CCn1c(-c2cc(N3CCN(C)CC3)cnc2C(C)OC)c2c3cc(ccc31)-c1csc(n1)CC(NC(=O)C1CC1C)C(=O)N1CCCC(N1)C(=O)OCC(C)(C)C2
< 3.16 nM: IC50 (second compound 0.000949 µM) | IC50 (second compound 0.003 µM) | IC50 (second compound 0.00949 µM) | IC50 (second compound 0.03 µM) | IC50 (second compound 0.0949 µM) | IC50 (second compound 0.3 µM)
active: viability, T/C [3] 8.79% | viability, T/C [4] 6.33% | viability, T/C [5] 6.11% | viability, T/C [6] 5.93% | viability, T/C [9] 9.81% | viability, T/C [10] 6.58% | viability, T/C [11] 9.3% | viability, T/C [12] 6.96% | viability, T/C [15] 9.06% | viability, T/C [16] 8.14% | viability, T/C [17] 8.28% | viability, T/C [18] 7.89% | viability, T/C [20] 11% | viability, T/C [21] 7.61% | viability, T/C [22] 6.76% | viability, T/C [23] 7.98% | viability, T/C [24] 6.7% | viability, T/C [25] 9.63% | viability, T/C [26] 8.06% | viability, T/C [27] 7.29% | viability, T/C [28] 5.92% | viability, T/C [29] 6.25% | viability, T/C [30] 6.08% | viability, T/C [31] 6.95% | viability, T/C [32] 7.22% | viability, T/C [33] 7.67% | viability, T/C [34] 5.52% | viability, T/C [35] 7.58% | viability, T/C [36] 6.63%
inactive: viability, T/C [1] 31% | viability, T/C [2] 15.8% | viability, T/C [7] 18.5% | viability, T/C [8] 12.8% | viability, T/C [13] 13.5% | viability, T/C [14] 10.9% | viability, T/C [19] 10.7%

C=CC(=O)Nc1cc(Nc2nccc(-c3cn(C)c4ccccc34)n2)c(OC)cc1N(C)CCN(C)C + CCn1c(-c2cc(N3CCN(C)CC3)cnc2C(C)OC)c2c3cc(ccc31)-c1csc(n1)CC(NC(=O)C1CC1C)C(=O)N1CCCC(N1)C(=O)OCC(C)(C)C2
inactive: viability, T/C [1] 38.2% | viability, T/C [2] 34.1% | viability, T/C [3] 30.4% | viability, T/C [4] 28.6% | viability, T/C [5] 25.3% | viability, T/C [6] 17.8% | viability, T/C [7] 21.1% | viability, T/C [8] 19.9% | viability, T/C [9] 18.6% | viability, T/C [10] 14.6% | viability, T/C [11] 13.4% | viability, T/C [12] 10.9% | viability, T/C [13] 16.4% | viability, T/C [14] 15.7% | viability, T/C [15] 15.5% | viability, T/C [16] 13.1% | viability, T/C [17] 9.97% | viability, T/C [19] 13% | viability, T/C [20] 11.8% | viability, T/C [21] 9.7% | viability, T/C [25] 8.87%
< 3.16 nM: IC50 (second compound 0.000949 µM) | IC50 (second compound 0.003 µM) | IC50 (second compound 0.00949 µM) | IC50 (second compound 0.03 µM) | IC50 (second compound 0.0949 µM) | IC50 (second compound 0.3 µM)
active: viability, T/C [18] 7.7% | viability, T/C [22] 9.51% | viability, T/C [23] 7.35% | viability, T/C [24] 5.44% | viability, T/C [26] 9.53% | viability, T/C [27] 8.8% | viability, T/C [28] 6.02% | viability, T/C [29] 6.17% | viability, T/C [30] 3.77% | viability, T/C [31] 8.98% | viability, T/C [32] 8.98% | viability, T/C [33] 7.33% | viability, T/C [34] 7.51% | viability, T/C [35] 4.7% | viability, T/C [36] 3.38%

Nc1ccn(C2OC(CO)C(O)C2(F)F)c(=O)n1 (stereo unspecified) + CCn1c(-c2cccnc2C(C)OC)c2c3cc(ccc31)N1CCOC(CC(NC(=O)C(C(C)C)N(C)C(=O)C3(F)CCN(C(=O)C#CC(C)(C)N(C)C)CC3)C(=O)N3CCCC(N3)C(=O)OCC(C)(C)C2)C1
6.66 nM: IC50 (second compound 0.3 µM)
7.04 nM: IC50 (second compound 0.000949 µM)
9.21 nM: IC50 (second compound 0.00949 µM)
6.7 nM: IC50 (second compound 0.003 µM) | IC50 (second compound 0.03 µM)
6.84 nM: IC50 (second compound 0.0949 µM)
inactive: viability, T/C [1] 94.9% | viability, T/C [2] 30.4% | viability, T/C [3] 11.6% | viability, T/C [4] 11% | viability, T/C [5] 14.4% | viability, T/C [6] 11.8% | viability, T/C [7] 89.2% | viability, T/C [8] 29.2% | viability, T/C [9] 10.5% | viability, T/C [10] 9.86% | viability, T/C [11] 13.8% | viability, T/C [12] 13.4% | viability, T/C [13] 94.2% | viability, T/C [14] 46.6% | viability, T/C [15] 11.3% | viability, T/C [16] 11.4% | viability, T/C [17] 11.3% | viability, T/C [18] 12.1% | viability, T/C [19] 89.7% | viability, T/C [20] 28.8% | viability, T/C [21] 12.1% | viability, T/C [22] 12.9% | viability, T/C [23] 11.7% | viability, T/C [24] 10.4% | viability, T/C [25] 96.9% | viability, T/C [26] 26.8% | viability, T/C [27] 11.9% | viability, T/C [28] 9.81% | viability, T/C [29] 12.7% | viability, T/C [30] 10.6% | viability, T/C [31] 94% | viability, T/C [32] 25.7% | viability, T/C [33] 12.1% | viability, T/C [34] 11% | viability, T/C [35] 11.5% | viability, T/C [36] 9.33%

Source: PubChem BioAssay AID2060902 (Molecular Pharmacology Branch, DTP, NCI, 2025)
